# Read-outs that look alike come from different tables or passages of the source. Starred links: 1 amine or outer side, 2 acyl side, 3 side chain; linkers in the order of their positions; H or OH if unused. Positions of bridges follow the written chain, without caps; N, C: chain ends. Non-standard residues stand in square brackets, D forms with d. Residues, ends and D or L forms follow the SMILES beside them. *: point of attachment. dBip = N[C@H](Cc1ccc(-c2ccccc2)cc1)C(=O)O; Oic = O=C(O)[C@@H]1C[C@@H]2CCCC[C@@H]2N1; Phe(4-Cl) = N[C@@H](Cc1ccc(Cl)cc1)C(=O)O; dPhe(4-Cl) = N[C@H](Cc1ccc(Cl)cc1)C(=O)O; Phe(4-I) = N[C@@H](Cc1ccc(I)cc1)C(=O)O; γGlu = O=C(O)[C@H](CCC(=O)[*:2])N[*:1]; NMeR = CN[C@@H](CCCNC(=N)N)C(=O)O; Tridecanoyl = CCCCCCCCCCCCC(=O)*; hArg = N=C(N)NCCCC[C@H](N)C(=O)O; β3hF = N[C@H](CC(=O)O)Cc1ccccc1; Cha = N[C@@H](CC1CCCCC1)C(=O)O; NMeL = CN[C@@H](CC(C)C)C(=O)O; αMeL = CC(C)C[C@](C)(N)C(=O)O; αMeP = C[C@@]1(C(=O)O)CCCN1; Nle = CCCC[C@H](N)C(=O)O; AEEA = NCCOCCOCC(=O)O; Aib = CC(C)(N)C(=O)O; Mpa = O=C(O)CCS
# Columns and labels:
# Human Mast Cells = experiment: Mast cell degranulation (histamine release), human mast cells; type: cell-based; details: human mast cells derived from CD34+ peripheral blood cells; 0.005 to 30 μM, 37° C., 30 min; less than 30% of total histamine content = negative
# Description: Mast cell degranulation was measured for a number of the modified apelin polypeptides as follows in order to determine the potential immunogenic effect of the peptides. Mast cell degranulating peptide (MCDP) and compound 48/80 were used as positive controls. MCDP was obtained from Alomone Labs (Israel). Compound 48/80 was obtained from Sigma (Saint Louis, […].). Histamine Elisa kit was obtained from NEOGEN (Lexington, Ky.). Tyrode's buffer was obtained from Sigma (#T2397).
# Mature human mast cells were derived from CD34+peripheral blood precursor cells after an 8-12 week differentiation/maturation process in vitro. […] Mast cell maturation was confirmed via expression of the mast cell markers c-kit and FcεRI via flow cytometry (>75% positive) and histamine release.
# Mast cells (human or rat) were washed in Tyrode's buffer and seeded on 96-well plates (approx. 2000 mast cells/well). A 10 point dilution of test compounds were prepared in Tyrode's buffer and were incubated (0.005 to 30 μM) with mast cells at 37° C. for 30 min. […] A mast cell surfactant control is compared to a mast cell Tyrode's buffer control to ensure surfactants are not inducing histamine release in the absence of the lipidated molecule. Histamine release was quenched by placing the plates on ice for 5 min. Cells were centrifuged at 350×g at 4° C. for 5 min and the supernatant was collected. Released histamine was quantified by ELISA (Neogen Corporation) as per the kits' instruction. Briefly, the absorbance was measured at 650 nm in a microplate reader, following a direct competitive ELISA reaction with test samples compared against a standard curve. Total histamine content of the cells (0.1% Triton X-100) and spontaneous release were also measured to determine the percent of histamine release. Percent histamine release was calculated by the following formula: % histamine release=(ng/ml histamine release by test article−ng/ml spontaneous histamine release in Tyrode's buffer)/(ng/ml total histamine content of cells lysed in 0.1% Triton X-100−ng/ml spontaneous histamine release in Tyrode's buffer)×100.
# [1] = In vitro stability in rat liver homogenate; type: in vitro ADME; details: tissue homogenate
# Summary of the method: (§1)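 Apelin peptides were spiked at 5 μM final into rat plasma, liver homogenate or kidney homogenate and incubated at 37° C. for up to 4 hr. Aliquots were quenched with MeOH containing internal standard, centrifuged, and supernatants analyzed by high resolution LC-MS.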
# [2] = In vitro stability in rat kidney homogenate; type: in vitro ADME; details: for remaining at 4 h, 5 μM: rat, tissue homogenate
# Summary of the method: as §1
# [3] = In vitro stability in rat plasma; type: in vitro ADME
# Summary of the method: as §1
# [4] = In vivo pharmacokinetics in rat; design: species or system Sprague-Dawley rats; details: rat, in vivo, sc, 0.5 mg/kg
# Description: Evaluation of the in vivo pharmacokinetic profile of several pegylated and lipidated apelin polypeptides in rat was undertaken (FIGS. 9 and 10A-B). The apelin polypeptides were administered to Sprague-Dawley rats through subcutaneous (SC) administration and the pharmacokinetic profile for each polypeptide was subsequently evaluated. […] Blood samples collected over a 24 hr period were transferred into collection tubes containing potassium EDTA and stored on ice until processed. Plasma was obtained from blood by centrifugation. After transfer into a 96-well container, plasma samples were stored in a freezer maintained at approximately −80° C. Quantitative analysis of the apelin polypeptide in rat plasma samples was achieved using multiple reaction monitor (MRM) mode on a LC-MS/MS system.
# [5] = tested on: Rat Peritoneal Mast Cells
# rat APJ receptor = target: T1, rat APJ receptor (Rattus norvegicus, UniProt Q9JHG3); experiment: [35S] GTPγS assay, rat APJ receptor; type: biochemical
# T1 construct: expressed in transfected cells
# T1 sequence (Q9JHG3 1-377): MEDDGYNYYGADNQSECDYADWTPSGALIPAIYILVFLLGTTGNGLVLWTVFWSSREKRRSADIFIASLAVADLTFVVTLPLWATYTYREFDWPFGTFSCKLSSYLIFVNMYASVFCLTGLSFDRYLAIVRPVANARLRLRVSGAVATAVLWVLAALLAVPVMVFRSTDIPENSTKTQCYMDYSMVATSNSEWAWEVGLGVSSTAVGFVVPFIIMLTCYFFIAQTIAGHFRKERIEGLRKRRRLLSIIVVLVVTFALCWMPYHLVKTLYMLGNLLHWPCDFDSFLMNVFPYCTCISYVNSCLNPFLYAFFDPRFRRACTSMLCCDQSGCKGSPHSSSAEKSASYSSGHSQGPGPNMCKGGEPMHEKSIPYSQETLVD
# Description: The membranes were incubated with modified peptides in the assay buffer. […] Bound [^35S] GTPγS was separated from free radiolabel by filtration. The filter bound radioactivity was determined by liquid scintillation counting.
# liver homogenate = details: rat, 37° C., up to 4 hr
compound,measurement,setting,value
CCCC[C@H](NC(=O)[C@@H]1CCCN1C(=O)CNC(=O)[C@H](CCCCN)NC(=O)[C@H](Cc1c[nH]cn1)NC(=O)[C@H](CO)NC(=O)C(C)(CC(C)C)NC(=O)[C@H](CCCCNC(=N)N)NC(=O)C1(C)CCCN1C(=O)[C@H](CCCNC(=N)N)NC(=O)[C@H](CCC(N)=O)NC(C)=O)C(=O)N1CCC[C@H]1C(=O)N[C@@H](Cc1ccc(Cl)cc1)C(=O)O (stereo partly drawn) [compound 69],Induce Histamine Release? Human Mast Cells,Human Mast Cells,No
CCCCCCCCCCCCC(=O)N[C@@H](CCC(=O)NCCOCCOCC(=O)NCCOCCOCC(=O)N[C@@H](CCC(N)=O)C(=O)N[C@@H](CCCNC(=N)N)C(=O)N1CCC[C@H]1C(=O)N(C)[C@@H](CCCNC(=N)N)C(=O)N[C@@](C)(CC(C)C)C(=O)N[C@@H](CO)C(=O)N[C@@H](Cc1c[nH]cn1)C(=O)N[C@@H](CCCCN)C(=O)NCC(=O)N1[C@H](C(=O)N[C@@H](CCCC)C(=O)N2CCC[C@@]2(C)C(=O)N[C@@H](Cc2ccc(Cl)cc2)C(=O)O)C[C@@H]2CCCC[C@@H]21)C(=O)O [compound 376] ({Tridecanoyl-γGlu-AEEA-AEEA}-QRP[NMeR][αMeL]SHKG[Oic][Nle][αMeP][Phe(4-Cl)]-OH),"remaining at 4 h, 5 μM",[1],10%
same,"remaining at 4 h, 5 μM",[2],13%
same,"remaining at 4 h, 5 μM",[3],83%
same,AUC(0-inf),[4]; Sprague-Dawley,0.09 µM·h
same,half-life,[4]; Sprague-Dawley,1.48 h
CC(=O)N[C@H](CCCNC(=N)N)C(=O)N[C@@H](CCC(N)=O)C(=O)N[C@@H](CCCNC(=N)N)C(=O)N1CCC[C@H]1C(=O)N[C@@H](CCCCNC(=N)N)C(=O)N(C)[C@@H](CC(C)C)C(=O)N[C@@H](CO)C(=O)N[C@@H](Cc1c[nH]cn1)C(=O)N[C@@H](CCCCN)C(=O)NCC(=O)N1[C@H](C(=O)N[C@@H](Cc2ccc(I)cc2)C(=O)N2CCC[C@H]2C(=O)N[C@H](Cc2ccc(-c3ccccc3)cc2)C(=O)O)C[C@@H]2CCCC[C@@H]21 [compound 52] (Ac-[dR]QRP[hArg][NMeL]SHKG[Oic][Phe(4-I)]P[dBip]-OH),EC50,[5],550 nM
same,EC50,rat APJ receptor; read-out: EC50 Rat APJ Receptor,1.14 nM
{H2}[MerPr](10KmPEGacetamide)QRP[NMeArg][Cha]SHKG[Oic][Nle][Aib][4-Cl-F]{COOH} (10KmPEGacetamide-[Mpa]QRP[NMeR][Cha]SHKG[Oic][Nle][Aib][Phe(4-Cl)]-OH) [SEQ ID NO: 120],induction of histamine release from rat mast cells,[5]; rat mast cells,no longer induced histamine release
CCCC[C@H](NC(=O)[C@@H]1CCCN1C(=O)CNC(=O)[C@H](CCCCN)NC(=O)[C@H](Cc1c[nH]cn1)NC(=O)[C@H](CO)NC(=O)[C@H](CC(C)C)NC(=O)[C@H](CCCNC(=N)N)N(C)C(=O)[C@@H]1CCCN1C(=O)[C@H](CCCNC(=N)N)NC(=O)[C@H](CCC(N)=O)NC(=O)COCCOCCNC(=O)COCCOCCNC(=O)CC[C@H](NC(=O)CCC)C(=O)O)C(=O)N1CCC[C@H]1C(=O)N[C@@H](Cc1ccc(Cl)cc1)C(=O)O [SEQ ID NO: 491],induction of histamine release from rat mast cells,[5],less mast cell degranulation activity
CSCC[C@H](NC(=O)[C@@H]1CCCN1C(=O)CNC(=O)[C@H](CCCCN)NC(=O)[C@H](Cc1cnc[nH]1)NC(=O)[C@H](CO)NC(=O)[C@H](CC(C)C)NC(=O)[C@H](CCCNC(=N)N)NC(=O)[C@@H]1CCCN1C(=O)[C@H](CCCNC(=N)N)NC(=O)[C@@H]1CCC(=O)N1)C(=O)N1CCC[C@H]1C(=O)N[C@@H](Cc1ccccc1)C(=O)O [compound 6],induction of histamine release from rat mast cells,[5],inactive at the highest concentrations tested
same,Stability at 4 hours (% Remaining) Kidney,"[2]; rat kidney homogenate, 5 μM peptide, 37° C., 4 hr",<1.0 % Remaining
CCCCCCCCCCCCC(=O)N[C@@H](CCC(=O)NCCOCCOCC(=O)NCCOCCOCC(=O)N[C@@H](CCC(N)=O)C(=O)N[C@@H](CCCNC(=N)N)C(=O)N1CCC[C@H]1C(=O)N(C)[C@@H](CCCNC(=N)N)C(=O)N[C@@H](CC1CCCCC1)C(=O)N[C@@H](CO)C(=O)N[C@@H](Cc1c[nH]cn1)C(=O)N[C@@H](CCCCN)C(=O)NCC(=O)N1[C@H](C(=O)N[C@@H](CCCC)C(=O)N2CCC[C@H]2C(=O)N[C@H](CC(=O)O)Cc2ccccc2)C[C@@H]2CCCC[C@@H]21)C(=O)O [compound 379] ({Tridecanoyl-γGlu-AEEA-AEEA}-QRP[NMeR][Cha]SHKG[Oic][Nle]P[β3hF]-OH),EC50,"rat APJ receptor; Table 16, read-out: EC50 Rat APJ Receptor",8.37 nM
same,"remaining at 4 h, 5 μM",[1],2%
same,"remaining at 4 h, 5 μM",[2],1%
same,"remaining at 4 h, 5 μM",[3],92%
same,AUC(0-inf),[4],0.052 µM·h
same,half-life,[4],2.27 h
{H2} [MerPr] (10K mPEG acetamide) Q [NMehArg] P [NMeArg] [aMeLeu] S H K G P [Nle] P [4-Cl-F] {COOH},not cleaved,liver homogenate,>90.0 % remaining at 4 hours
{H2} [MerPr] (10K mPEG acetamide) Q r P [hArg] [aMeLeu] S H K G P [Nle] P [4-Cl-F] {COOH},not cleaved,liver homogenate,>90.0 % remaining at 4 hours
CCCC[C@H](NC(=O)[C@@H]1C[C@@H]2CCCC[C@@H]2N1C(=O)CNC(=O)[C@H](CCCCN)NC(=O)[C@H](Cc1c[nH]cn1)NC(=O)[C@H](CO)NC(=O)[C@H](CC1CCCCC1)NC(=O)[C@H](CCCNC(=N)N)N(C)C(=O)[C@@H]1CCCN1C(=O)[C@H](CCCCNC(=N)N)NC(=O)[C@@H](CCC(N)=O)NC(C)=O)C(=O)N1CCC[C@H]1C(=O)N[C@H](Cc1ccc(Cl)cc1)C(=O)O [compound 55] (Ac-[dQ][hArg]P[NMeR][Cha]SHKG[Oic][Nle]P[dPhe(4-Cl)]-OH),EC50,[5],8170 nM
{Acetyl-NH} Q R P [NMeArg] [Cha] S H K G [Oic] [Nle] [Aib] [4-Cl—F] {COOH} (Ac-QRP[NMeR][Cha]SHKG[Oic][Nle][Aib][Phe(4-Cl)]-OH) [SEQ ID NO: 92],induction of histamine release from rat mast cells,[5],positive
"CC[C@H](C)[C@H](N)C(=O)N[C@@H](CCCCN)C(=O)N[C@H]1CSSC[C@@H]2NC(=O)[C@H]([C@@H](C)CC)NC(=O)[C@H](Cc3c[nH]cn3)NC(=O)[C@@H]3CCCN3C(=O)[C@H](CCCCN)NC(=O)[C@H]([C@@H](C)CC)NC(=O)[C@H](C(C)C)NC(=O)[C@H](Cc3c[nH]cn3)NC(=O)[C@H](CCCNC(=N)N)NC(=O)[C@H](CCCCN)NC(=O)[C@H](CSSC[C@@H](C(=O)NCC(=O)N[C@@H](CCCCN)C(=O)N[C@@H](CC(N)=O)C(N)=O)NC(=O)[C@H]([C@@H](C)CC)NC(=O)[C@H](CCCCN)NC(=O)[C@H](CCCNC(=N)N)NC2=O)NC(=O)[C@H](CC(N)=O)NC1=O [MCDP, reference compound] (H-IKCNCKRHVIKPHICRKICGKN-NH2; disulfide 3-15, 5-19 (inferred); N-terminus and C-terminus assumed)",Cause Histamine Release?,[5],Yes
same,EC50,[5],520 nM
